Data on 13 compounds can be found in US20210059251A1, “PLANT GROWTH REGULATOR COMPOUNDS” (SYNGENTA PARTICIPATIONS AG, priority 2018, published 2021).

Structures are written as SMILES.

This experiment has as its system corn leaf. Put plainly: Dark induced senescence of corn leaf (leaf discs). Format: cell-based, Corn (variety Multitop). As to conditions: 23° C., 8 days, 0.5% DMSO, image analysis, lower value = higher senescence induction potency; for IC50: Zea mays, foliar, 192 h, read-out: IC50 (concentration at which 50% senescence was achieved). On the procedure:
It is known that strigolactones regulate (accelerate) leaf senescence, potentially through D14 receptor signaling. Compounds of the present invention (I) were compared to structurally-related compounds (Z) in a corn leaf dark induced senescence assay. Corn plants of variety Multitop were grown in a greenhouse with relative 75% humidity and at 23-25° C. for 6 weeks. 1.4 cm diameter leaf discs were placed into 24-well plates containing a test compounds in a concentration gradient (100 μM-0.0001 μM) at a final concentration of 0.5% DMSO. Each concentration was tested in 12 replicates. Plates were sealed with seal foil. The foil was pierced to provide gas exchange in each well. The plates were placed into the completely dark climatic chamber. Plates were incubated in the chamber with 75% humidity and at 23° C. for 8 days. On days 0, 5, 6, 7 and 8 photographs were taken of each plate, and image analysis conducted with a macro developed using the ImageJ software. The image analysis was used to determine the concentration at which 50% senescence was achieved (IC50), see Table 7. The lower the value, the higher senescence induction potency.

Regarding `CC(=O)N1C(=O)/C(=C/OC2C=C(C)C(=O)O2)C2c3ccccc3CC21` (stereo not shown) [Compound I-1, (1E)-3-acetyl-1-[(4-methyl-5-oxo-2H-furan-2-yl)oxymethylene]-4,8b-dihydro-3aH-indeno[2,1-b]pyrrol-2-one], the IC50 came to 64 nM.

As to `CC(=O)N1C(=O)/C(=C/OC2OC(=O)C(C)=C2C)C2c3ccccc3CC21` (stereo not shown) [Compound I-5, (1E)-3-acetyl-1-[(3,4-dimethyl-5-oxo-2H-furan-2-yl)oxymethylene]-4,8b-dihydro-3aH-indeno[2,1-b]pyrrol-2-one], the IC50 is 24 nM. `CC1=CC(O/C=C2/C(=O)N(c3nccs3)C3Cc4ccccc4C23)OC1=O` (stereo not shown) [Compound I-9, (1E)-1-[(4-methyl-5-oxo-2H-furan-2-yl)oxymethylene]-3-thiazol-2-yl-4,8b-dihydro-3aH-indeno[2,1-b]pyrrol-2-one]: the IC50 came out at 126 nM. Take `CC1=CC(O/C=C2/C(=O)N(c3ccccc3)C3Cc4ccccc4C23)OC1=O` (stereo not shown) [Compound I-10, (1E)-1-[(4-methyl-5-oxo-2H-furan-2-yl)oxymethylene]-3-phenyl-4,8b-dihydro-3aH-indeno[2,1-b]pyrrol-2-one]: the IC50 came out at 107 nM. Turning to `CC1=CC(O/C=C2/C(=O)N(CC#N)C3Cc4ccccc4C23)OC1=O` (stereo not shown) [Compound I-12-E, 2-[(1E)-1-[(4-methyl-5-oxo-2H-furan-2-yl)oxymethylene]-2-oxo-4,8b-dihydro-3aH-indeno[2,1-b]pyrrol-3-yl]acetonitrile], the IC50 amounted to 1550 nM. With `CC1=C(C)C(O/C=C2/C(=O)N(c3nccs3)C3Cc4ccccc4C23)OC1=O` (stereo not shown) [Compound I-13, (1E)-1-[(3,4-dimethyl-5-oxo-2H-furan-2-yl)oxymethylene]-3-thiazol-2-yl-4,8b-dihydro-3aH-indeno[2,1-b]pyrrol-2-one], the IC50 came to 11.1 nM.

Regarding `CC(=O)N1C(=O)/C(=C/OC2OC(=O)C(C)=C2C)C2c3ccccc3OC21` (stereo not shown) [Compound I-25], the IC50 was determined as 990 nM.

As to `CC(=O)N1C(=O)/C(=C/OC2C=C(C)C(=O)O2)C2Cc3ccccc3C21` (stereo not shown) [Compound Z1, reference compound], the IC50 amounted to 110 nM. `CC(=O)N1C(=O)/C(=C/OC2OC(=O)C(C)=C2C)C2Cc3ccccc3C21` (stereo not shown) [Compound Z1-Me, reference compound]: the IC50 was determined as 30 nM.

For the compound `CC1=CC(O/C=C2/C(=O)N(c3nccs3)C3c4ccccc4CC23)OC1=O` (stereo not shown) [Compound Z2, reference compound], the “IC50 (concentration at which 50% senescence was achieved)” value was “inactive”. In the case of `CC1=C(C)C(O/C=C2/C(=O)N(c3nccs3)C3c4ccccc4CC23)OC1=O` (stereo not shown) [Compound Z2-Me, reference compound], the “IC50 (concentration at which 50% senescence was achieved)” value is “inactive”. On to `CC1=CC(O/C=C2/C(=O)N(c3ccccc3)C3c4ccccc4CC23)OC1=O` (stereo not shown) [Compound Z3, reference compound], for which the IC50 was 2470 nM. Turning to `CC1=CC(O/C=C2/C(=O)N(CC#N)C3c4ccccc4CC23)OC1=O` (stereo not shown) [Compound Z4-E, reference compound], the IC50 is 3710 nM.
